Experimental data from ChEMBL document CHEMBL1139786, “Anti-tubercular agents. Part IV: Synthesis and antimycobacterial evaluation of nitroheterocyclic-based 1,2,4-benzothiadiazines” (2007).
≈ marks a conversion by molar mass, not a printed value.

Tests used:
Format in all cases: functional
Pseudomonas aeruginosa = test: Antibacterial activity against Pseudomonas aeruginosa MTCC 1688 by broth dilution method
[1] = system: Mycobacterium tuberculosis; test: Antibacterial activity against Mycobacterium tuberculosis H37Rv by nitrate reductase assay
Bacillus subtilis = test: Antibacterial activity against Bacillus subtilis MTCC 441 by broth dilution method
Escherichia coli = test: Antibacterial activity against Escherichia coli MTCC 443 by broth dilution method
Staphylococcus aureus = test: Antibacterial activity against Staphylococcus aureus MTCC 96 by broth dilution method

Compound | MIC (Pseudomonas aeruginosa) [µg/mL] | MIC [1] [µg/mL] | MIC (Bacillus subtilis) [µg/mL] | MIC (Escherichia coli) [µg/mL] | MIC (Staphylococcus aureus) [µg/mL]
O=[N+]([O-])c1ccc(/C=N\NC2=NS(=O)(=O)c3ccccc3N2c2ccccc2)s1 | 150 (≈ 351 µM) | 4 (≈ 9.36 µM) | 37.5 (≈ 87.7 µM) | 18.8 (≈ 43.9 µM) | 37.5 (≈ 87.7 µM)
CN1C(NNC(=O)c2ccc([N+](=O)[O-])o2)=NS(=O)(=O)c2ccccc21 | 150 (≈ 411 µM) | 32 (≈ 87.6 µM) | 18.8 (≈ 51.3 µM) | 18.8 (≈ 51.3 µM) | 37.5 (≈ 103 µM)
CCN1C(NNC(=O)c2ccc([N+](=O)[O-])o2)=NS(=O)(=O)c2ccccc21 | 150 (≈ 395 µM) | 32 (≈ 84.4 µM) | 18.8 (≈ 49.4 µM) | 18.8 (≈ 49.4 µM) | 150 (≈ 395 µM)
CCN1C(NNC(=O)c2ccc(-c3ccccc3[N+](=O)[O-])o2)=NS(=O)(=O)c2ccccc21 | 150 (≈ 329 µM) | > 100 | 18.8 (≈ 41.2 µM) | 18.8 (≈ 41.2 µM) | 9.37 (≈ 20.6 µM)
O=C(NNC1=NS(=O)(=O)c2ccccc2N1c1ccccc1)c1ccc(-c2ccccc2[N+](=O)[O-])o1 | 150 (≈ 298 µM) | > 100 | 37.5 (≈ 74.5 µM) | 75 (≈ 149 µM) | 18.8 (≈ 37.2 µM)
CN1C(NNC(=O)c2ccc(-c3ccccc3[N+](=O)[O-])o2)=NS(=O)(=O)c2cc(Cl)ccc21 | 150 (≈ 315 µM) | > 100 | 37.5 (≈ 78.8 µM) | 18.8 (≈ 39.4 µM) | 75 (≈ 158 µM)
CN1C(NNC(=O)c2ccc(-c3cccc([N+](=O)[O-])c3)o2)=NS(=O)(=O)c2ccccc21 | 75 (≈ 170 µM) | > 100 | 37.5 (≈ 85 µM) | 18.8 (≈ 42.5 µM) | 18.8 (≈ 42.5 µM)
O=C(NNC1=NS(=O)(=O)c2ccccc2N1c1ccccc1)c1ccc(-c2cccc([N+](=O)[O-])c2)o1 | 150 (≈ 298 µM) | > 100 | 37.5 (≈ 74.5 µM) | 18.8 (≈ 37.2 µM) | 18.8 (≈ 37.2 µM)
CCN1C(N/N=C\c2ccc([N+](=O)[O-])s2)=NS(=O)(=O)c2ccccc21 | 150 (≈ 395 µM) | 16 (≈ 42.2 µM) | 18.8 (≈ 49.4 µM) | 18.8 (≈ 49.4 µM) | 18.8 (≈ 49.4 µM)
CC(C)N1C(N/N=C\c2ccc([N+](=O)[O-])s2)=NS(=O)(=O)c2ccccc21 | 150 (≈ 381 µM) | 4 (≈ 10.2 µM) | 18.8 (≈ 47.7 µM) | 18.8 (≈ 47.7 µM) | 18.8 (≈ 47.7 µM)
CN1C(N/N=C\c2ccc([N+](=O)[O-])o2)=NS(=O)(=O)c2ccccc21 | 150 (≈ 429 µM) | 8 (≈ 22.9 µM) | 37.5 (≈ 107 µM) | 18.8 (≈ 53.7 µM) | 37.5 (≈ 107 µM)
CN1C(NNC(=O)c2ccc(-c3ccccc3[N+](=O)[O-])o2)=NS(=O)(=O)c2ccccc21 | 75 (≈ 170 µM) | > 100 | 37.5 (≈ 85 µM) | 37.5 (≈ 85 µM) | 18.8 (≈ 42.5 µM)
CCN1C(N/N=C\c2ccc([N+](=O)[O-])o2)=NS(=O)(=O)c2ccccc21 | 150 (≈ 413 µM) | 8 (≈ 22 µM) | 9.37 (≈ 25.8 µM) | 18.8 (≈ 51.6 µM) | 37.5 (≈ 103 µM)
O=C(NNC1=NS(=O)(=O)c2ccccc2N1c1ccccc1)c1ccc([N+](=O)[O-])o1 | 150 (≈ 351 µM) | 8 (≈ 18.7 µM) | 75 (≈ 175 µM) | 18.8 (≈ 43.9 µM) | 37.5 (≈ 87.7 µM)
CN1C(NNC(=O)c2ccc([N+](=O)[O-])o2)=NS(=O)(=O)c2cc(Cl)ccc21 | 150 (≈ 375 µM) | 4 (≈ 10 µM) | 18.8 (≈ 46.9 µM) | 18.8 (≈ 46.9 µM) | 37.5 (≈ 93.8 µM)
O=[N+]([O-])c1ccc(/C=N\NC2=NS(=O)(=O)c3ccccc3N2c2ccccc2)o1 | 150 (≈ 365 µM) | 1 (≈ 2.43 µM) | 37.5 (≈ 91.2 µM) | 37.5 (≈ 91.2 µM) | 75 (≈ 182 µM)
CCN1C(NNC(=O)c2ccc(-c3cccc([N+](=O)[O-])c3)o2)=NS(=O)(=O)c2ccccc21 | 150 (≈ 329 µM) | > 100 | 37.5 (≈ 82.3 µM) | 75 (≈ 165 µM) | 75 (≈ 165 µM)
CN1C(N/N=C\c2ccc([N+](=O)[O-])s2)=NS(=O)(=O)c2ccccc21 | 150 (≈ 411 µM) | 8 (≈ 21.9 µM) | 18.8 (≈ 51.3 µM) | 37.5 (≈ 103 µM) | 37.5 (≈ 103 µM)
NNC(=O)c1ccncc1 [ISONIAZID] |  | 0.5 (≈ 3.65 µM) |  |  | 
O=C1CN(/N=C/c2ccc([N+](=O)[O-])o2)C(=O)N1 [NITROFURANTOIN] | 150 (≈ 630 µM) |  | 18.8 (≈ 78.7 µM) | 18.8 (≈ 78.7 µM) | 18.8 (≈ 78.7 µM)
CO[C@H]1/C=C/O[C@@]2(C)Oc3c(C)c(O)c4c(O)c(c(/C=N/N5CCN(C)CC5)c(O)c4c3C2=O)NC(=O)/C(C)=C\C=C\[C@H](C)[C@H](O)[C@@H](C)[C@@H](O)[C@@H](C)[C@H](OC(C)=O)[C@@H]1C [RIFAMPIN] |  | 0.12 (≈ 0.146 µM) |  |  | 
